In paper PMC3913682, “A Monoclonal Antibody TrkB Receptor Agonist as a Potential Therapeutic for Huntington’s Disease” (PLoS ONE, 2014):

B1: Brain-derived neurotrophic factor (protein, UniProt P23560 19-247, looked up)
Neurotrophic factor BDNF …: APMKEANIRGQGGLAYPGVRTHGTLESVNGPKAGSRGLTSLADTFEHVIEELLDEDQKVRPNEENNKDADLYTSRVMLSSQVPLEPPLLFLLEEYKNYLDAANMSMRVRRHSDPARRGELSVCDSISEWVTAADKKTAVDMSGGTVTVLEKVPVSKGQLKQYFYETKCNPMGYTKEGCRGIDKRHWNSQCRTTQSYVRALTMDSKKRIGWRFIRIDTSCVCTLTIKRGR
notes: Neuroprotective secreted protein, cognate neurotrophin of TrkB

Legend:
[1] = tested on: striatal neurons; experiment: Primary neuronal mHTT-induced cell death assay (cortico-striatal co-culture); assay type: cell-based, rat
From the text: Cortical and striatal neurons were isolated from E18 rat embryos and separately transfected with a HTT exon1 fragment containing 73 CAG repeats (HTTN90Q73), together with a plasmid encoding for either a green AcGFP or a red AsRed fluorescent reporter before being plated on glial cells and treated with candidate pharmacological agents. After 5 days in culture, the number of fluorescent cells remaining was counted using an automated high content imaging and analysis platform (GE Healthcare InCell 2000) and any changes in neuronal survival quantified.

[2] = target: T1, TrkB (Homo sapiens, UniProt Q16620); experiment: CellSensor TrkB-NFAT-bla CHO-K1 reporter gene assay (agonist, antagonist, PAM modes); assay type: cell-based; parameters: host or cells: CHO-K1
Description: The assays were configured using Invitrogen CHO-K1 cell lines stably expressing a β-lactamase gene under the control of a NFAT promoter region and the relevant Trk (A, B or C) receptor (except for the Trk null cell line). The activity of the β-lactamase enzyme was quantified via FRET with a fluorescent substrate containing a β-lactam ring, according to manufacturer’s provided protocol. All CellSensor® NFAT-bla CHO-K1 cell lines were seeded into black 384w assay plates in CellSensor® plating media (growth media without antibiotics) at 5,000 cells in a volume of 25 µL per well; cells were incubated at 37°C, 5% CO2 overnight. Then, the assay plating media was removed and replaced with 32 µL of assay media (plating media without serum) and returned to the incubator for 1 hour. […] Test compounds were added (4 µL) and cells were returned to the incubator for 1 hour; dependent on assay mode (agonist, antagonist or positive allosteric modulator) assay media alone (agonist mode), assay media containing EC80 neurotrophin (antagonist mode) or assay media containing EC20 neurotrophin (PAM mode) were then added to the cells (4 µL) for a further 4 hour incubation. ToxBLAzer detection reagent was reconstituted according to the manufacturer’s instructions and 8 µL/well added to the assay plates, these were then incubated at room temperature protected from light for 2 hours. Levels of β-lactamase activity were then quantified by measuring the fluorescent intensity ratio between ^EX400nm/^EM535nm and ^EX400nm/^EM460nm and cytotoxicity quantified by measuring the fluorescence intensity at ^EX590nm/^EM665nm using a Perkin Elmer EnVision.

[3] = Solubility assay under CellSensor assay conditions (HPLC-UV); assay type: physicochemical; details: for Concentration @ t = 0: 0 hours; for Concentration @ t = 0 / Concentration @ t = 3 / Concentration @ t = 7: assay buffer, 0.5% DMSO; for Concentration @ t = 3: 3 hours; for Concentration @ t = 7: 7 hours
Description: To align with the functional data, all compound samples and dilutions were prepared using the CellSensor® assay conditions that include: assay buffer, plates, sample volumes and the same timeframe. The assay incubation time was 7 hours. 0, 3 and 7 hour samples were analysed, in triplicate, in the final assay buffer (DMEM/Glutamax + NEAA + 20 mM Hepes pH7.4 + 0.01% BSA, final DMSO concentration 0.5%) at nominal compound concentrations of 5, 20 and 50 µM. […] The 7 and 3 hour samples were prepared at times which allowed simultaneous filtering and sample analysis.

[4] = target: T1, TrkB; parameters: method as in PMID 19549602; details: hippocampal neurons; cited from earlier work
[5] = target: T1, TrkB; parameters: host or cells: CHO-K1; details: cited from earlier work
[6] = tested on: TrkB phosphorylation; experiment: Western blot of TrkB phosphorylation in rat primary cortico-striatal co-cultures; assay type: cell-based; details: 15 minutes; non-transfected; Figure 7B, C
From the text: (§1) Clarified cell lysates were resolved by SDS-PAGE, blotted onto nitrocellulose membranes and immunoprobed with the relevant primary and secondary antibody combinations. Anti-pTrkB Tyr^516 (4619), anti-pTrkB Tyr^706/707 (4621), anti-pTrkB, Tyr^816 (4168), anti-pERK1/2 […], anti-pAKT […], anti-TrkB (4603), anti-AKT (4685) and anti-ERK1/2 (4695) were sourced from Cell Signalling Technologies. Anti-GAPDH (IMG-5143A) was obtained from Imgenex; Goat anti-rabbit HRP conjugate (PO448) and Goat anti-mouse HRP conjugate (PO447) were sourced from Dako. Goat anti-mouse 800CW conjugate and Goat anti-rabbit 680 conjugate were sourced from LI-COR. Immunoreactive signals were detected using enhanced chemiluminescence reagent (Amersham) or using the Odyssey infra-red reader.

[7] = tested on: Hippocampal HT-22 (TrkB-null cell line); parameters: method as in PMID 21651962; details: cited from earlier work
[8] = tested on: Trk null-NFAT-bla CHO-K1 cells; experiment: CellSensor Trk null-NFAT-bla CHO-K1 reporter gene assay; assay type: cell-based; details: Cricetulus griseus, Figure 2D, 5 hours
Description: The assays were configured using Invitrogen CHO-K1 cell lines stably expressing a β-lactamase gene under the control of a NFAT promoter region and the relevant Trk (A, B or C) receptor (except for the Trk null cell line). The activity of the β-lactamase enzyme was quantified via FRET with a fluorescent substrate containing a β-lactam ring, according to manufacturer’s provided protocol. All CellSensor® NFAT-bla CHO-K1 cell lines were seeded into black 384w assay plates in CellSensor® plating media (growth media without antibiotics) at 5,000 cells in a volume of 25 µL per well; cells were incubated at 37°C, 5% CO2 overnight. Then, the assay plating media was removed and replaced with 32 µL of assay media (plating media without serum) and returned to the incubator for 1 hour. […] Levels of β-lactamase activity were then quantified by measuring the fluorescent intensity ratio between ^EX400nm/^EM535nm and ^EX400nm/^EM460nm and cytotoxicity quantified by measuring the fluorescence intensity at ^EX590nm/^EM665nm using a Perkin Elmer EnVision.

[9] = tested on: TrkB, AKT and ERK1/2 phosphorylation; experiment: Western blot of TrkB, AKT and ERK1/2 phosphorylation in TrkB-NFAT-bla CHO-K1 cells; assay type: cell-based; details: Figure 6E
From the text: as §1

[10] = target: T1, TrkB; experiment: DiscoveRx PathHunter U2OS TrkB enzyme fragment complementation (EFC) assay; assay type: cell-based; details: Figure 6C; read-out: BDNF potency (EC50), PathHunter EFC, agonist mode
From the text: The assay was configured using DiscoveRx PathHunter® U2OS cell line stably co-expressing two cDNAs: a ProLink™ (PK) tagged TrkB receptor and an Enzyme Acceptor (EA) tagged SH2 domain. Activation of the TrkB-PK receptor induces receptor dimerization and trans-phosphorylation, leading to SH2-EA recruitment, and thereby forcing complementation of the two β-galactosidase enzyme fragments (EA and PK). The resulting functional enzyme hydrolyzes substrate to generate a chemiluminescent signal. U2OS-TrkB PathHunter® cells were seeded into white 384w assay plates in plating media (1x MEM; 0.5% v/v horse serum) at 10,000 cells in a volume of 20 µL per well, cells were incubated at 37°C, 5% CO2 overnight to adhere to assay plates. Test compounds were added (5 µL) to the cells and the plates were returned to the incubator for 1 hour; dependent on assay mode (agonist, antagonist or positive allosteric modulator) assay media alone (agonist mode), assay media containing EC80 BDNF (antagonist mode) or assay media containing EC20 BDNF (PAM mode) were then added to the cells (5 µL) for a further 4 hour incubation at room temperature. PathHunter® detection reagent was then added (15 µL/well) and incubated at room temperature protected from light for 1 hour. Levels of β-galactosidase activity were then quantified by measuring the chemiluminescent signal obtained using a Perkin Elmer EnVision.

T1 sequence (Q16620 32-822): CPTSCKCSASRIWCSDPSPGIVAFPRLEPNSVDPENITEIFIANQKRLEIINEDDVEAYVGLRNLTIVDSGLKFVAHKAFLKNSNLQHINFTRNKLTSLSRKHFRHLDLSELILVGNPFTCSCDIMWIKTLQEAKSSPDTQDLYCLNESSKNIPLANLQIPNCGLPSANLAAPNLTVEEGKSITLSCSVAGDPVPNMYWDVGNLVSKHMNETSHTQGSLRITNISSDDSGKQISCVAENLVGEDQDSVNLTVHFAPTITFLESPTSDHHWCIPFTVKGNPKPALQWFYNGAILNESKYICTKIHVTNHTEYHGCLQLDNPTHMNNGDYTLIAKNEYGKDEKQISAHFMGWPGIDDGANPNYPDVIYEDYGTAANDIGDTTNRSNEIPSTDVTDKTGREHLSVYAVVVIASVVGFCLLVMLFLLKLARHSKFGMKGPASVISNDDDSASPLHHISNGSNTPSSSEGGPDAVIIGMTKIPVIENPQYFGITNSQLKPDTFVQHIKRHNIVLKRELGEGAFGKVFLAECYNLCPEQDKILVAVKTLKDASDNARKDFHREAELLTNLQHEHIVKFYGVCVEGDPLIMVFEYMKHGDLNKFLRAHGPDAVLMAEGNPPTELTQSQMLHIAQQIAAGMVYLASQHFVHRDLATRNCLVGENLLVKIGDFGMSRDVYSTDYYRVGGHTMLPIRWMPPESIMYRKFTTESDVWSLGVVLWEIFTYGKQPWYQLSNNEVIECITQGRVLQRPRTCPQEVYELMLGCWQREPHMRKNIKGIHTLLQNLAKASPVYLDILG

Molecule | Concentration @ t = 0 ([3]; nominal concentration 5 µM) [µM] | Concentration @ t = 3 ([3]; nominal concentration 5 µM) [µM] | Concentration @ t = 7 ([3]; nominal concentration 5 µM) [µM] | Concentration @ t = 0 ([3]; nominal concentration 20 µM) [µM] | Concentration @ t = 3 ([3]; nominal concentration 20 µM) [µM] | Concentration @ t = 7 ([3]; nominal concentration 20 µM) [µM] | Concentration @ t = 0 ([3]; nominal concentration 50 µM) [µM] | Concentration @ t = 3 ([3]; nominal concentration 50 µM) [µM] | Concentration @ t = 7 ([3]; nominal concentration 50 µM) [µM] | Published in vitro activity (in words) [5] | Published in vitro activity: Activity [5] [nM] | also measured
COc1ccc(C(=O)c2cn(C(C)C)c3ncnc(N)c23)cc1NC(=O)Nc1ccc(Cl)cc1Cl [pan-Trk kinase inhibitor, 1-(5-(4-amino-7-isopropyl-7H-pyrrolo[2,3-d]pyrimidine-5-carbonyl)-2-methoxyphenyl)-3-(2,4-dichlorophenyl)urea] |  |  |  |  |  |  |  |  |  |  |  | Effect on antibody effects in striatal neurons ([1]; data not shown): reversed; Effect on induction of NFAT activity by TrkB mAbs ([2]; co-incubation, pan-Trk inhibitor 100 nM): completely prevented
CN(C)CCC=C1c2ccccc2CCc2ccccc21 [Amitriptyline] | 3.7 | 4.3 | 3.2 | 7.6 | 7.1 | 5.9 | 33 | 27 | 27 | Neuronal TrkA/B agonist; Neuroprotective | 10 to 250 | Potency relative to the cognate neurotrophin (less potent) [4]: ~100 fold; PAM activity, NFAT reporter gene assay, PAM mode (in words) ([2]; Figure 6B, in presence of ~EC20 BDNF (40 pM)): concentration-dependent TrkB inhibition
O=c1cc(-c2ccccc2)oc2c(O)c(O)ccc12 [7,8-dihydroxyflavone] | 0.49 | 0.24 | 2.3 | 3.0 | 1.9 | 5.2 | 13 | 10 | 13 | Neuronal TrkB agonist; Promotes neurogenesis | 10 to 250 | Protection of striatal neurons from mHTT-induced cell death (in words) ([1]; Figure 7A): failed to mimic the ability of BDNF; Concentrations at which toxicity was evident ([1]; rat cortico-striatal co-culture): ≥ 20 µM; Induction of TrkB phosphorylation (in words) [6]: failed to mimic the ability of BDNF; Compound remaining in solution ([3]; beyond the tested lower concentration of 5 µM, NFAT assay solutions): ~20%; Concentrations showing toxicity effects, HT-22 cell viability [7]: above 20 µM
C/C=C(/C)C(=O)O[C@H]1C(C)=C2[C@H]([C@@H]1OC(=O)CCCCCCC)[C@@](C)(OC(C)=O)C[C@H](OC(=O)CCC)[C@@]1(O)[C@H]2OC(=O)[C@@]1(C)O [Thapsigargin] |  |  |  |  |  |  |  |  |  |  |  | EC50 [8]: 1.6 nM
CC(=O)NCCc1c[nH]c2ccc(O)cc12 [N-acetyl serotonin] | 7.6 | 8.8 | 10 | 13 | 14 | 17 | 38 | 44 | 49 | Neuronal TrkB agonist | 100 | Basal phospho-ERK1/2 immunoreactive bands ([9]; LM22A-4 at low (10 µM) and high (83 µM), N-acetyl serotonin at high (83 µM) concentration): absence of immunoreactive bands
COC(=O)[C@H]1[C@H]2C[C@@H]3c4[nH]c5cc(OC)ccc5c4CCN3C[C@H]2C[C@@H](OC(=O)c2cc(OC)c(OC)c(OC)c2)[C@@H]1OC [Reserpine] | 2.8 | 3.0 | 3.7 | 3.4 | 2.9 | 4.5 | 6.7 | 4.5 | 6.9 |  |  | 
B1 |  |  |  |  |  |  |  |  |  |  |  | EC50 [10]: 0.823 nM; EC50 ([1]; Figure 7A, normalized to 1 nM BDNF (100% Rescue) and vehicle (0%), read-out: EC50, % Rescue of striatal neurons from mHTT-induced cell death): 0.214 nM; TrkB, ERK1/2 and AKT phosphorylation (pathway activation) ([9]; 5 hours treatment): induced phosphorylation of TrkB, ERK1/2 and AKT; EC50 ([2]; Figure 4A, 5 hours, read-out: EC50, TrkB-NFAT-bla reporter, agonist mode): 0.145 nM; EC50 ([2]; Figure 6A, read-out: BDNF potency (EC50), CellSensor NFAT reporter, agonist mode): 0.323 nM
